From patent US11117883B2 (Ariad Pharmaceuticals, Inc., priority 2016, dated 2021)

Tests used:
[1] = biological target: T1, BAF3 FL KIT EX11DEL/D816H (Homo sapiens, UniProt P10721, D816H, cells depend on it, form not given); test: c-Kit assay: Ba/F3 KIT mutant viability (Cell Titer-Glo, 72 hours); format: cell-based; conditions: viability after 72 hours
T1 construct: "BAF3 FL KIT EX11DEL/ D816H"
Method: (§1) KIT cDNAs were synthesized by GenScript and cloned into the pLVX-IRES-Puro vector (Clontech). Viral particles were produced by transfecting pLVX-IRES-puro vectors containing KIT mutant genes into HEK293 cells (Invitrogen) using the Trans-Lentiviral ORF Packaging Kit (Thermo Scientific). 48 hours post-transfection, virus-containing supernatants were harvested and incubated for another 48-72 hours with parental Ba/F3 cells (DSMZ) in the presence of 10 ng/mL […] (R&D Systems). Transduced Ba/F3 cells were then selected by IL-3 withdrawal and puromycin (0.5-1 μg/mL, Invitrogen).
(§2) Cell lines (i.e., EX11DEL, EX11DEL/D816H, EX11DEL/T670I, and EX11DEL/V654A) were plated into 384 well plates using RPMI 1640 supplemented with 10% FBS at densities that produced linear growth and incubated at 37° C. in 5% (v/v) CO2. Cells were treated with eight concentrations of compound over a 4-fold dilution (10 μM to 0.61 nM) and viability was assessed using Cell Titer-Glo assay (Promega) after 72 hours. Data were plotted as percent viability relative to vehicle-treated cells. Dose-responses curves were generated and used to calculate IC50 values.

[2] = biological target: T2, BAF3 FL KIT EX11DEL (Homo sapiens, UniProt P10721, cells depend on it, form not given); test: as above; format: cell-based; conditions: viability after 72 hours
T2 construct: "BAF3 FL KIT EX11DEL"
Method: as §1, §2

[3] = biological target: T3, BAF3 FL KIT EX11DEL/T6701 (Homo sapiens, UniProt P10721, T670I, cells depend on it, form not given); test: as above; format: cell-based; conditions: EX11DEL/T6701, viability after 72 hours
T3 construct: "BAF3 FL KIT EX11DEL/ T6701"
Method: as §1, §2

[4] = biological target: T4, BAF3 FL KIT EX11DEL/V654A (Homo sapiens, UniProt P10721, V654A, cells depend on it, form not given); test: as above; format: cell-based; conditions: viability after 72 hours
T4 construct: "BAF3 FL KIT EX11DEL/ V654A"
Method: as §1, §2

[5] = test system: gastrointestinal stromal tumors (GIST); conditions: third line therapy; cited from earlier work

T3 sequence (P10721 with tags, fused parts or gaps DEL557-558/T670I, form open): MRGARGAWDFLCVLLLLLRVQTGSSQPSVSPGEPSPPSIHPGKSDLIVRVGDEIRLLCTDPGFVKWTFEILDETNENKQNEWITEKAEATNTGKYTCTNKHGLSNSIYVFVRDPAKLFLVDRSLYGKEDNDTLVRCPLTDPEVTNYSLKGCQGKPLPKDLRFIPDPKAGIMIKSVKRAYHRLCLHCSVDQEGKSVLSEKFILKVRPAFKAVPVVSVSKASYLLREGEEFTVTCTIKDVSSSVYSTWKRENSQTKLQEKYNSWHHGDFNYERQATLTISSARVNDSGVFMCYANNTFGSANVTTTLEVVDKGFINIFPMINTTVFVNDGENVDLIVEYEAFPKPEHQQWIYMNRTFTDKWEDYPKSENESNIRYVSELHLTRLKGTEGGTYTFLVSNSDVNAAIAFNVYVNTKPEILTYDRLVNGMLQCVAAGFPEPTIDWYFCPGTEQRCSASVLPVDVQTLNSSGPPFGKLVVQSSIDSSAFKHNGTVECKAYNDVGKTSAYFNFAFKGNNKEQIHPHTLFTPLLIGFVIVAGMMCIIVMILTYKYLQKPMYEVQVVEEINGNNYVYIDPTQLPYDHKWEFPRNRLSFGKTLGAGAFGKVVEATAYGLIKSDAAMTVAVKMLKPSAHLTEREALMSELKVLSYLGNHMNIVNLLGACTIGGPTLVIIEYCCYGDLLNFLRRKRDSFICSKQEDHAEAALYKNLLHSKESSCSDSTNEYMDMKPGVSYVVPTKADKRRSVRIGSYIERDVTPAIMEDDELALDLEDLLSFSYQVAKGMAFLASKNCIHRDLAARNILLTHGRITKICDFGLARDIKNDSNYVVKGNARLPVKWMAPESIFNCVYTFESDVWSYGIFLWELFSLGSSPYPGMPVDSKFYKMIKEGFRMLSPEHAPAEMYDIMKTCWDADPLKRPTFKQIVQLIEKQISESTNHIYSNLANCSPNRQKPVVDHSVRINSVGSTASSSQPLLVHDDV
T1 sequence (P10721 with tags, fused parts or gaps DEL557-558/D816H, form open): as the sequence (P10721 with tags, fused parts or gaps DEL557-558/T670I, form open) above, with I668T, D814H counted along it
T2 sequence (P10721 with tags, fused parts or gaps DEL557-558): as the sequence (P10721 with tags, fused parts or gaps DEL557-558/T670I, form open) above, with I668T counted along it
T4 sequence (P10721 with tags, fused parts or gaps DEL557-558/V654A, form open): as the sequence (P10721 with tags, fused parts or gaps DEL557-558/T670I, form open) above, with V652A, I668T counted along it

Row | SMILES | GI50 [1] [nM] | GI50 [2] [nM] | GI50 [3] [nM] | GI50 [4] [nM] | ORR [5] [%] | median PFS [5] [months]
1 | Cc1ccc(NC(=O)c2ccc(CN3CCN(C)CC3)c(C(F)(F)F)c2)cc1C#Cc1ccc2c(c1)ncn2-c1cnn(C)c1 [Compound I-46, N-(4-methyl-3-((1-(1-methyl-1H-pyrazol-4-yl)-1H-benzo[d]imidazol-5-yl)ethynyl)phenyl)-4-((4-methylpiperazin-1-yl)methyl)-3-(trifluoromethyl)benzamide] | 100 to 10000 | 10 to 50 | 50 to 100 | 100 to 10000 | – | –
2 | Cc1ccc(NC(=O)c2ccc(CN3CCCC3)c(C(F)(F)F)c2)cc1C#Cc1ccc2c(c1)ncn2-c1cnn(C)c1 [Compound I-47, N-(4-methyl-3-((1-(1-methyl-1H-pyrazol-4-yl)-1H-benzo[d]imidazol-5-yl)ethynyl)phenyl)-4-(pyrrolidin-1-ylmethyl)-3-(trifluoromethyl)benzamide] | 100 to 10000 | 10 to 50 | 50 to 100 | 100 to 10000 | – | –
3 | Cc1ccc(NC(=O)c2ccc(CN3CCOCC3)c(C(F)(F)F)c2)cc1C#Cc1ccc2c(c1)ncn2-c1cnn(C)c1 [Compound I-48, N-(4-methyl-3-((1-(1-methyl-1H-pyrazol-4-yl)-1H-benzo[d]imidazol-5-yl)ethynyl)phenyl)-4-(morpholinomethyl)-3-(trifluoromethyl)benzamide] | 50 to 100 | < 10 | 10 to 50 | 50 to 100 | – | –
4 | Cn1cc(-n2cnc3cc(C#Cc4cccc(NC(=O)c5cc(C(F)(F)F)ccn5)c4)ccc32)cn1 [Compound I-49, N-(3-((1-(1-methyl-1H-pyrazol-4-yl)-1H-benzo[d]imidazol-5-yl)ethynyl)phenyl)-4-(trifluoromethyl)picolinamide] | 100 to 10000 | < 10 | 10 to 50 | 50 to 100 | – | –
5 | Cn1cc(-n2cnc3cc(C#Cc4cccc(C(=O)Nc5cc(C(F)(F)F)ccn5)c4)ccc32)cn1 [Compound I-50, 3-((1-(1-methyl-1H-pyrazol-4-yl)-1H-benzo[d]imidazol-5-yl)ethynyl)-N-(4-(trifluoromethyl)pyridin-2-yl)benzamide] | 100 to 10000 | < 10 | < 10 | 50 to 100 | – | –
6 | Cn1cc(-n2cnc3cc(C#Cc4cc(C(=O)Nc5cc(C(F)(F)F)ccn5)ccc4F)ccc32)cn1 [Compound I-51, 4-fluoro-3-((1-(1-methyl-1H-pyrazol-4-yl)-1H-benzo[d]imidazol-5-yl)ethynyl)-N-(4-(trifluoromethyl)pyridin-2-yl)benzamide] | 100 to 10000 | < 10 | < 10 | 10 to 50 | – | –
7 | Cn1cc(-n2cnc3cc(C#Cc4cc(NC(=O)c5cc(C(F)(F)F)ccn5)ccc4F)ccc32)cn1 [Compound I-52, N-(4-fluoro-3-((1-(1-methyl-1H-pyrazol-4-yl)-1H-benzo[d]imidazol-5-yl)ethynyl)phenyl)-4-(trifluoromethyl)picolinamide] | 100 to 10000 | < 10 | < 10 | 50 to 100 | – | –
8 | CNC(=O)c1cc(Oc2ccc(NC(=O)Nc3ccc(Cl)c(C(F)(F)F)c3)c(F)c2)ccn1 [Regorafenib] | – | – | – | – | 4.5 | 4.8
